This is an account of results in publication PMC11784839, “Monoaminergic neurotransmitters are bimodal effectors of tau aggregation” (Science Advances, 2025).

The experiment has as its target tau (Homo sapiens, UniProt P10636). The experiment can be described thus: MCE Phenols Library screening, tau biosensor cell seeding assay (AvZ). The experiment is classed as cell-based. Particulars: for Z repl 1 / Z Repl 2: Z score; for Z repl 1 / raw data 1: replicate 1; for Z Repl 2 / raw data 2: replicate 2; for AvZ (average z score of seeding, SDs from the mean level of seeding): 10 μM phenol in cell cultures, AD brain homogenate preincubated 16 hours, two biological replicates, positive = catalyzes seeding, negative = inhibits.

The mark [1] stands for this setting: average Z score of the two replicates, MCE Phenols Library screen.
The mark [2] stands for this setting: average puncta of the two replicates.
The mark [3] stands for this setting: average Z score of the two replicates, tau seeding.
Setting [4] is: average Z score of the two replicates, tau biosensor seeding, MCE Phenols Library screen.
[5] abbreviates: average Z score of two replicates, Phenols Library screen.

tau, sequence (P10636 623-695 limits assumed): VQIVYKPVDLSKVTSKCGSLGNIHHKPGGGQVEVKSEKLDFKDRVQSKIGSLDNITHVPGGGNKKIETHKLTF

Consider `Cc1cc(O)c2c(=O)c3c(O)cc(O)c4c5c(O)cc(O)c6c(=O)c7c(O)cc(C)c8c1c2c(c34)c(c78)c65` [Hypericin], for which the “Z repl 1” value is on record as -1.344 and the “Z Repl 2” value is given as -0.424. Also, under setting [1], the “av Z” value is on record as -0.884. Moreover, for the setting “average of raw data 1 and 2”, the av puncta came out at 9227.43. Also, for the setting “puncta”, the “raw data 1” value is listed as 10216.3 and the “raw data 2” value was found to be 8238.56.
On to `O=c1c(O[C@@H]2O[C@H](CO)[C@H](O)[C@H](O)[C@H]2O)c(-c2ccc(O)c(O)c2)oc2cc(O)cc(O)c12` [Hyperoside], for which the “Z repl 1” value was -0.253 and the “Z Repl 2” value is -0.241. For the same compound, the “av Z” value under setting [1] is recorded as -0.247. The compound also registered an av puncta under setting [2] of 16752.5. Besides, where the note is “raw puncta”, the “raw data 1” value is 23311.4 and the “raw data 2” value is given as 10193.6.
`COc1c2c3c4c(c(OC)c(=O)c5c(O)cc(OC)c(c6c(OC)cc(O)c(c1=O)c63)c54)[C@@H](C(C)=O)[C@@](C)(O)C2` [Hypocrellin A]: the “Z repl 1” value was -1.761 and the “Z Repl 2” value is recorded as -1.119. Further, the “av Z” value under setting [1] is on record as -1.44. Moreover, the av puncta (average of raw data 1 and 2) worked out at 3011.52. For the same compound, where the note is “puncta”, the “raw data 1” value was determined as 5209.06 and the “raw data 2” value was 813.974.
Consider `COc1ccc(-c2oc3c(CC=C(C)C)c(O[C@@H]4O[C@H](CO)[C@@H](O)[C@H](O)[C@H]4O)cc(O)c3c(=O)c2O[C@@H]2O[C@@H](C)[C@H](O)[C@@H](O)[C@H]2O)cc1` [Icariin], for which the “Z repl 1” value is listed as 0.381 and the “Z Repl 2” value came out at 0.569. The “av Z” value under setting [3] came out at 0.475. Also, the av puncta (average of raw data 1 and 2) is reported as 24883.3. Also, for the setting “puncta”, the “raw data 1” value was determined as 30921.9 and the “raw data 2” value stood at 18844.8.
As to `COc1ccc(-c2oc3c(CC=C(C)C)c(O)cc(O)c3c(=O)c2O)cc1` [Icaritin], the “Z repl 1” value is 0.42 and the “Z Repl 2” value came out at 0.629. Also, the “av Z” value under setting [3] amounted to 0.525. Also, the av puncta (average of raw data 1 and 2) stood at 25439.4. Besides, where the note is “puncta”, the “raw data 1” value is 31392.8 and the “raw data 2” value is recorded as 19486.
For `O=C(c1ccc(O)cc1)c1c(O)cc(O)c([C@@H]2O[C@H](CO)[C@@H](O)[C@H](O)[C@H]2O)c1O` [Iriflophenone 3-C-glucoside], the “Z repl 1” value is 0.626 and the “Z Repl 2” value is listed as -0.232. Also, under setting [3], the “av Z” value was found to be 0.197. The compound further had an av puncta (average of raw data 1 and 2) of 22078.3. Besides, where the note is “puncta”, the “raw data 1” value was determined as 33866.6 and the “raw data 2” value is given as 10290.
Regarding `COc1ccc(-c2coc3cc(O)c(OC)c(O)c3c2=O)cc1` [Irisolidone], the “Z repl 1” value came out at 0.554 and the “Z Repl 2” value is 1.188. Also, the “av Z” value under setting [4] worked out at 0.871. Besides, the av puncta (average of raw data 1 and 2) was found to be 29224.4. Besides, where the note is “puncta”, the “raw data 1” value was determined as 32994.7 and the “raw data 2” value is recorded as 25454.1.
As for `COc1ccc(-c2coc3cc(O[C@@H]4O[C@H](CO)[C@@H](O)[C@H](O)[C@H]4O)c(OC)c(O)c3c2=O)cc1O` [Iristectorin A], the “Z repl 1” value is 0.106 and the “Z Repl 2” value worked out at 0.25. The “av Z” value under setting [3] worked out at 0.178. Where the note is “average of raw data 1 and 2”, this compound came in with an av puncta of 21528.7. Under “puncta”, the “raw data 1” value was 27620 and the “raw data 2” value is on record as 15437.3.
For the compound `COc1cc(-c2coc3cc(O[C@@H]4O[C@H](CO)[C@@H](O)[C@H](O)[C@H]4O)c(OC)c(O)c3c2=O)ccc1O` [Iristectorin B], the “Z repl 1” value is recorded as -0.293 and the “Z Repl 2” value is given as -0.887. The “av Z” value under setting [1] was -0.59. Moreover, the av puncta under setting [2] is reported as 13061.4. Besides, under “puncta”, the “raw data 1” value amounted to 22827.1 and the “raw data 2” value was 3295.67.
Consider `O=C(/C=C/c1ccc(O)c(O)c1)O[C@@H]1C[C@](O)(C(=O)O)C[C@@H](OC(=O)/C=C/c2ccc(O)c(O)c2)[C@H]1O` [Isochlorogenic acid A], for which the “Z repl 1” value was -0.182 and the “Z Repl 2” value is given as 0.275. For the same compound, under setting [5], the “av Z” value is 0.046. The av puncta (average of raw data 1 and 2) was 19930.3. Further, for the setting “puncta”, the “raw data 1” value was 24161.4 and the “raw data 2” value is given as 15699.2.
Consider `COc1ccc2c(c1O)-c1c(OC)c(OC)cc3c1[C@H](C2)N(C)CC3` [Isocorydine], for which the “Z repl 1” value was -0.45 and the “Z Repl 2” value is on record as -0.651. Also, the “av Z” value under setting [1] is given as -0.55. For the same compound, the av puncta under setting [2] stood at 13380.4. For the same compound, for the setting “puncta”, the “raw data 1” value was 20943.6 and the “raw data 2” value amounted to 5817.19.
Take `C/C=C/c1ccc(OC(C)=O)c(OC)c1` [Isoeugenol acetate]: the “AvZ (average z score of seeding, SDs from the mean level of seeding)” value (shortened to “AvZ”) is given as -0.275; the “Z repl 1” value is listed as -0.788; the “Z Repl 2” value stood at 0.239. Under setting [2], this compound came in with an av puncta of 16103.3. Under “raw puncta”, the “raw data 1” value stood at 16893.4 and the “raw data 2” value turned out to be 15313.2.
With `COc1ccc2c(=O)c(-c3ccc(O)cc3)coc2c1` [Isoformononetin], the “Z repl 1” value is 0.35 and the “Z Repl 2” value was -0.155. The “av Z” value under setting [5] turned out to be 0.098. Further, the av puncta (average of raw data 1 and 2) is listed as 20831. Besides, where the note is “puncta”, the “raw data 1” value is 30549.1 and the “raw data 2” value worked out at 11112.8.
Consider `COc1cc2ccc(=O)oc2c(OC)c1O` [Isofraxidin], for which the “Z repl 1” value was determined as 0.211 and the “Z Repl 2” value stood at 0.742. For the same compound, under setting [3], the “av Z” value was 0.477. This compound also came in with an av puncta (average of raw data 1 and 2) of 24789.8. Where the note is “puncta”, the “raw data 1” value was determined as 28887.4 and the “raw data 2” value turned out to be 20692.2.
For `COc1ccc(C[C@@H]2c3cc(Oc4cc(C[C@@H]5c6cc(O)c(OC)cc6CCN5C)ccc4O)c(OC)cc3CCN2C)cc1` [Isoliensinine], the “Z repl 1” value is 0.107 and the “Z Repl 2” value turned out to be 0.423. In addition, under setting [3], the “av Z” value is given as 0.265. This compound had an av puncta (average of raw data 1 and 2) of 22459.5. Besides, for the setting “puncta”, the “raw data 1” value is on record as 27639.6 and the “raw data 2” value stood at 17279.4.
In the case of `O=C(/C=C/c1ccc(O)cc1)c1ccc(O)cc1O` [Isoliquiritigenin], the “Z repl 1” value is given as 0.483 and the “Z Repl 2” value worked out at 0.177. In addition, the “av Z” value under setting [3] is listed as 0.33. Under “average of raw data 1 and 2”, this compound yielded an av puncta of 23402.5. Further, under “puncta”, the “raw data 1” value was 32143.5 and the “raw data 2” value is listed as 14661.5.
Turning to `O=c1c2cc(O)c(O)cc2oc2c([C@@H]3O[C@H](CO)[C@@H](O)[C@H](O)[C@H]3O)c(O)cc(O)c12` [Isomangiferin], the “Z repl 1” value came out at 0.307 and the “Z Repl 2” value is listed as 0.537. The “av Z” value under setting [3] was found to be 0.422. This compound also returned an av puncta (average of raw data 1 and 2) of 24267.1. Under “puncta”, the “raw data 1” value is given as 30032.6 and the “raw data 2” value amounted to 18501.6.
In the case of `O=c1cc(-c2ccc(O)c(O)c2)oc2cc(O)c([C@@H]3O[C@H](CO)[C@@H](O)[C@H](O)[C@H]3O)c(O)c12` [Isoorientin], the “Z repl 1” value amounted to 0.708 and the “Z Repl 2” value was determined as 0.042. Under setting [3], the “av Z” value is listed as 0.375. The same compound returned an av puncta (average of raw data 1 and 2) of 24030.3. Further, for the setting “puncta”, the “raw data 1” value stood at 34846.9 and the “raw data 2” value is listed as 13213.7.
As to `COc1cc(/C=C/C(=O)OC(C)C)ccc1O` [Isopropyl ferulate], the “AvZ” value was -0.332; the “Z repl 1” value was found to be 0.168; the “Z Repl 2” value is -0.833. The same compound had an av puncta under setting [2] of 16119. Also, where the note is “raw puncta”, the “raw data 1” value was 28366.5 and the “raw data 2” value was found to be 3871.42.
`O=c1c(O[C@@H]2O[C@H](CO)[C@@H](O)[C@H](O)[C@H]2O)c(-c2ccc(O)c(O)c2)oc2cc(O)cc(O)c12` [Isoquercetin]: the “Z repl 1” value came to 0.174 and the “Z Repl 2” value is recorded as -0.844. Besides, the “av Z” value under setting [1] is given as -0.335. Under setting [2], this compound showed an av puncta of 16096.8. Further, under “raw puncta”, the “raw data 1” value is listed as 28442.1 and the “raw data 2” value is on record as 3751.47.
Take `COc1cc(-c2oc3cc(O)cc(O)c3c(=O)c2O)ccc1O` [Isorhamnetin]: the “Z repl 1” value is 0.124 and the “Z Repl 2” value is listed as -0.648. In addition, under setting [1], the “av Z” value was -0.262. The av puncta under setting [2] is given as 16840.7. In addition, for the setting “raw puncta”, the “raw data 1” value was found to be 27835.2 and the “raw data 2” value is 5846.21.
`COc1cc(/C=C/c2cc(O)cc(O)c2)ccc1O` [Isorhapontigenin]: the “Z repl 1” value came to 1.299 and the “Z Repl 2” value is on record as 0.571. The “av Z” value under setting [4] is 0.935. The compound further came in with an av puncta (average of raw data 1 and 2) of 30407. Moreover, where the note is “puncta”, the “raw data 1” value was determined as 41947.4 and the “raw data 2” value was found to be 18866.6.
As for `O=c1cc(-c2ccc(O)cc2)oc2c([C@@H]3O[C@H](CO)[C@@H](O)[C@H](O)[C@H]3O)c(O)c([C@@H]3OC[C@H](O)[C@H](O)[C@H]3O)c(O)c12` [Isoschaftoside], the “Z repl 1” value was -0.121 and the “Z Repl 2” value was -0.131. Besides, under setting [5], the “av Z” value is listed as -0.126. For the same compound, the av puncta (average of raw data 1 and 2) is reported as 18128.6. Further, where the note is “puncta”, the “raw data 1” value stood at 24892.1 and the “raw data 2” value is 11365.2.
`COc1ccc(C(=O)O)cc1O` [Isovanillic acid]: the “AvZ” value is on record as -0.151; the “Z repl 1” value is 0.248; the “Z Repl 2” value is on record as -0.549. Under “average of raw data 1 and 2”, this compound had an av puncta of 18113.3. Moreover, under “puncta”, the “raw data 1” value is listed as 29328.9 and the “raw data 2” value is listed as 6897.73.
Regarding `COc1ccc(C=O)cc1O` [Isovanillin], the “AvZ” value is on record as -0.519; the “Z repl 1” value is -0.326; the “Z Repl 2” value is -0.711. This compound also had an av puncta under setting [2] of 13803.3. Also, for the setting “puncta”, the “raw data 1” value came to 22438.6 and the “raw data 2” value is recorded as 5167.88.
